“And” between values parts separate entries of the source, which are not always exact repeats. Equal entries are not always repeated. One block for each molecule: values may come before it.
System: 922993-354-T-J3-PDC complex spheroids, viability
Experiment: Anticancer human tumor 922993-354-T-J3-PDC patient-derived endometrial carcinoma cell line growth inhibition [GQUAD]
Details: for viability, T/C: stronger effect = lower value
From the text: DNA G-quadruplex Stabilizer Agents in Combinations in Complex Spheroids
A high-throughput screen of multi-cell type tumor spheroids was designed to identify active combinations of DNA G-quadruplex stabilizer agents and targeted small molecules. Complex spheroids include a stromal component modeled by human endothelial cells (HUVEC) and fibroblasts modeled by human mesenchymal stem cells (MSCs). The concentration ranges selected for each drug and investigational agent were based upon clinically achievable concentrations if the clinical Cmax of the agent was known.
Compounds. The drugs and investigational agents: pidnarulex (CX-5461; NSC782164), APTO-253 (NSC789042), BRACO-19 (NSC847499), peposertib (NSC802822), ceralasertib (NSC780249), elimusertib (NSC800525), camonsertib (NSC841442), AZD-1390 (NSC803789), olaparib (NSC753686), talazoparib (NSC767125), ART-558 (NSC835418), sotorasib (NSC818433), MRTX-1133 (NSC836407), SN-38 (NSC673596), topotecan (NSC609699), etoposide (NSC141540), doxorubicin (NSC123127), gemcitabine (NSC613327), 5-fluorouracil (NSC19893), paclitaxel (NSC125973), vemurafenib (NSC761431), panobinostat (NSC761190), R-306465 (JNJ-16241199; NSC773264), adavosertib (NSC754352), TP-3654 (NSC805149), carboplatin (NSC241240), KSQ-4279 (NSC840948), and staurosporine (NSC755774) were obtained from the National Cancer Institute (NCI) Developmental Therapeutics Program Chemical Repository (34). The FDA-approved anticancer drug set is available from the NCI Developmental Therapeutics Program. […] The stock solutions were prepared in dimethyl sulfoxide (DMSO, Sigma-Aldrich, St. Louis, MO, cat. D2650) at 800-fold the tested concentration and stored at -70 degrees C prior to their use. All drugs and investigational agents were tested over a range starting from a high concentration at or near the clinical Cmax and decreasing in half-log increments. If the clinical Cmax for an agent had not been determined, the highest concentration tested was 10 microM.
2.3 Cell Culture. All cells were maintained in an incubator at 37 degrees C and 5% CO2 with 95% humidity. The PDC lines were cultured according to standard operating procedures established by the NCI PDMR. All PDCs were thawed and cultured in Matrigel-coated flasks prepared with a working solution of 1X Ham's F-12 nutrient mix, without supplementation (Invitrogen, cat. 11765054), 100 U/mL penicillin-streptomycin (Invitrogen, cat. 15140122), and 2.5% Matrigel (Corning Inc., cat. 354248) for the first three passages. The 857933-349-R-J2-PDC line was cultured in 6C/Colon 1B media, which includes advanced DMEM/F-12 (Thermo Fisher Scientific, cat. 12634028), 10 mM HEPES (Thermo Fisher Scientific, cat. 15630080), 1X GlutaMAX supplement (Thermo Fisher Scientific, cat. 35050061), 0.1 mg/mL primocin (InvivoGen, cat. ant-pm-2), 10% defined fetal bovine serum, heat inactivated (HyClone Laboratories Inc., cat. SH30070.03HI), 50% L-WRN conditioned media (ATCC, cat. CRL-3276), 1.25 mM N-Acetyl-L-cysteine (Sigma-Aldrich, cat. A9165), 10 mM nicotinamide (Sigma-Aldrich, cat. N0636), 1X B-27 supplement (Thermo Fisher Scientific, cat. 17504044), 1X N-2 supplement (Thermo Fisher Scientific, cat. 17502048), 10 microM Y-27632 dihydrochloride (Tocris Bioscience, cat. 1254), and 50 ng/mL human EGF recombinant protein (Thermo Fisher Scientific, cat. PHG0311). The 485176-168-R4-J1-PDC line was cultured in Panc media, which includes all 6C/Colon 1B media components plus 100 ng/mL human FGF-10 (Thermo Fisher Scientific, cat. 100-26), 500 nM SB-431542 (Selleckchem, cat. S1067), and gastrin (Tocris, cat. 3006).
[…]

[1] = compound alone, run of 03/26/2024
[2] = curve of first compound, second compound 0.0316 µM
[3] = curve of first compound, second compound 0.1 µM
[4] = curve of first compound, second compound 0.316 µM
[5] = curve of first compound, second compound 1 µM
[6] = curve of first compound, second compound 3.16 µM
[7] = curve of first compound, second compound 10 µM
[8] = second compound 0.0316 µM, first compound 0.0316 µM
[9] = second compound 0.0316 µM, first compound 0.1 µM
[10] = second compound 0.0316 µM, first compound 0.316 µM
[11] = second compound 0.0316 µM, first compound 1 µM
[12] = second compound 0.0316 µM, first compound 3.16 µM
[13] = second compound 0.0316 µM, first compound 10 µM
[14] = second compound 0.1 µM, first compound 0.0316 µM
[15] = second compound 0.1 µM, first compound 0.1 µM
[16] = second compound 0.1 µM, first compound 0.316 µM
[17] = second compound 0.1 µM, first compound 1 µM
[18] = second compound 0.1 µM, first compound 3.16 µM
[19] = second compound 0.1 µM, first compound 10 µM
[20] = second compound 0.316 µM, first compound 0.0316 µM
[21] = second compound 0.316 µM, first compound 0.1 µM
[22] = second compound 0.316 µM, first compound 0.316 µM
[23] = second compound 0.316 µM, first compound 1 µM
[24] = second compound 0.316 µM, first compound 3.16 µM
[25] = second compound 0.316 µM, first compound 10 µM
[26] = second compound 1 µM, first compound 0.0316 µM
[27] = second compound 1 µM, first compound 0.1 µM
[28] = second compound 1 µM, first compound 0.316 µM
[29] = second compound 1 µM, first compound 1 µM
[30] = second compound 1 µM, first compound 3.16 µM
[31] = second compound 1 µM, first compound 10 µM
[32] = second compound 3.16 µM, first compound 0.0316 µM
[33] = second compound 3.16 µM, first compound 0.1 µM
[34] = second compound 3.16 µM, first compound 0.316 µM
[35] = second compound 3.16 µM, first compound 1 µM
[36] = second compound 3.16 µM, first compound 3.16 µM
[37] = second compound 3.16 µM, first compound 10 µM
[38] = second compound 10 µM, first compound 0.0316 µM
[39] = second compound 10 µM, first compound 0.1 µM
[40] = second compound 10 µM, first compound 0.316 µM
[41] = second compound 10 µM, first compound 1 µM
[42] = second compound 10 µM, first compound 3.16 µM
[43] = second compound 10 µM, first compound 10 µM
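Also: spheroids exposed to compounds for seven days.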
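For viability, T/C in this document: 100% = DMSO vehicle control viability.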

SMILES: C#Cc1c(F)ccc2cc(O)cc(-c3ncc4c(N5CC6CCC(C5)N6)nc(OCC56CCCN5CC(F)C6)nc4c3F)c12 (configuration not stated)
viability, T/C (compound 0.0316 µM): 84.5% and 92.3% and 99.3%
viability, T/C (compound 0.1 µM): 82.8% and 84% and 92.6%
viability, T/C (compound 0.316 µM): 89.6% and 103% and 84.7%
viability, T/C (compound 1 µM): 92.7% and 82.5% and 106%
viability, T/C (compound 3.16 µM): 76.5% and 96.3% and 94.4%
viability, T/C (compound 10 µM): 96.1% and 82.3% and 91.5%
IC50 (curve of compound): > 10 µM

SMILES: CN(C)c1ccc(Nc2c3ccc(NC(=O)CCN4CCCC4)cc3nc3cc(NC(=O)CCN4CCCC4)ccc23)cc1
viability, T/C (compound 0.316 µM): 99.4% [middle of 12 runs]
IC50 [1]: > 10 µM

SMILES: CC(C)(O)C1CCC(Nc2ccc3ncc(-c4cccc(C(F)(F)F)c4)n3n2)CC1 (configuration not stated) + Cc1cnc(CNC(=O)c2c(=O)c3ccc(N4CCCN(C)CC4)nc3n3c2sc2ccccc23)cn1
IC50 [2]: > 10 µM
IC50 [3]: > 10 µM
IC50 [4]: 0.0316 µM
IC50 [5]: < 0.0316 µM
IC50 [6]: < 0.0316 µM
IC50 [7]: < 0.0316 µM
viability, T/C [8]: 89.5%
viability, T/C [9]: 97.4%
viability, T/C [10]: 67.9%
viability, T/C [11]: 90.6%
viability, T/C [12]: 105%
viability, T/C [13]: 84.1%
viability, T/C [14]: 69%
viability, T/C [15]: 71.9%
viability, T/C [16]: 51.2%
viability, T/C [17]: 59.6%
viability, T/C [18]: 65.8%
viability, T/C [19]: 67.6%
viability, T/C [20]: 48.6%
viability, T/C [21]: 58.8%
viability, T/C [22]: 48.4%
viability, T/C [23]: 47.5%
viability, T/C [24]: 65.9%
viability, T/C [25]: 58.2%
viability, T/C [26]: 47.8%
viability, T/C [27]: 51.8%
viability, T/C [28]: 40.4%
viability, T/C [29]: 53.1%
viability, T/C [30]: 57.4%
viability, T/C [31]: 54.8%
viability, T/C [32]: 40.7%
viability, T/C [33]: 43.9%
viability, T/C [34]: 38.8%
viability, T/C [35]: 47.4%
viability, T/C [36]: 41.4%
viability, T/C [37]: 37.5%
viability, T/C [38]: 36.7%
viability, T/C [39]: 47.4%
viability, T/C [40]: 31%
viability, T/C [41]: 18.5%
viability, T/C [42]: 9.55%
viability, T/C [43]: 4.71%

SMILES: O=C(NO)c1cnc(N2CCN(S(=O)(=O)c3ccc4ccccc4c3)CC2)nc1
viability, T/C (compound 0.0316 µM): 98.1% and 88.5% and 95.5%
viability, T/C (compound 0.1 µM): 71.3% and 68.2% and 82.4%
viability, T/C (compound 0.316 µM): 56% and 62% and 55.4%
viability, T/C (compound 1 µM): 36.7% and 32.2% and 32%
viability, T/C (compound 3.16 µM): 3.07% and 3.39% and 4.12%
viability, T/C (compound 10 µM): 0.53% (2×) and 0.58%
IC50 (curve of compound): 0.381 µM and 0.447 µM and 0.422 µM

SMILES: CC1COCCN1c1cc(C2(S(C)(=N)=O)CC2)nc(-c2ccnc3[nH]ccc23)n1 (configuration not stated) + Cc1[nH]c2ccc(F)cc2c1-c1nc2c3cccnc3c3ncccc3c2[nH]1
IC50 [2]: > 10 µM
IC50 [3]: > 10 µM
IC50 [4]: > 10 µM
IC50 [5]: > 10 µM
IC50 [6]: > 10 µM
IC50 [7]: > 10 µM
viability, T/C [8]: 103%
viability, T/C [9]: 96.9%
viability, T/C [10]: 110%
viability, T/C [11]: 83.9%
viability, T/C [12]: 114%
viability, T/C [13]: 60.6%
viability, T/C [14]: 110%
viability, T/C [15]: 107%
viability, T/C [16]: 138%
viability, T/C [17]: 132%
viability, T/C [18]: 106%
viability, T/C [19]: 67.5%
viability, T/C [20]: 135%
viability, T/C [21]: 117%
viability, T/C [22]: 109%
viability, T/C [23]: 124%
viability, T/C [24]: 79.6%
viability, T/C [25]: 67%
viability, T/C [26]: 118%
viability, T/C [27]: 106%
viability, T/C [28]: 109%
viability, T/C [29]: 106%
viability, T/C [30]: 106%
viability, T/C [31]: 80.1%
viability, T/C [32]: 92.3%
viability, T/C [33]: 124%
viability, T/C [34]: 87.2%
viability, T/C [35]: 104%
viability, T/C [36]: 88.8%
viability, T/C [37]: 81.4%
viability, T/C [38]: 138%
viability, T/C [39]: 104%
viability, T/C [40]: 128%
viability, T/C [41]: 96.3%
viability, T/C [42]: 101%
viability, T/C [43]: 89%

The next lines start with results.

IC50 (curve of compound): > 10 µM
SMILES: O=C(c1cc(Cc2n[nH]c(=O)c3ccccc23)ccc1F)N1CCN(C(=O)C2CC2)CC1
viability, T/C (compound 0.0316 µM): 86.5% and 123% and 91.1%
viability, T/C (compound 0.1 µM): 93% and 92.2% and 94.4%
viability, T/C (compound 0.316 µM): 102% and 98.1% and 105%
viability, T/C (compound 1 µM): 86.7% and 85.6% and 86.3%
viability, T/C (compound 3.16 µM): 88.2% and 92.5% and 92.1%
viability, T/C (compound 10 µM): 99.3% and 77.2% and 85.4%

IC50 (compound alone, run of 03/18/2024): > 10 µM
IC50 [1]: > 10 µM
SMILES: Cc1[nH]c2ccc(F)cc2c1-c1nc2c3cccnc3c3ncccc3c2[nH]1
viability, T/C (compound 10 µM): 106% [middle of 12 runs]

IC50 (curve of compound): > 0.316 µM
SMILES: Cc1[nH]c2ccccc2c1CCNCc1ccc(/C=C/C(=O)NO)cc1
viability, T/C (compound 0.000999 µM): 83.6% and 110% and 88.9%
viability, T/C (compound 0.00316 µM): 102% and 93.8% and 74%
viability, T/C (compound 0.00999 µM): 70% and 75.6% and 89.6%
viability, T/C (compound 0.0316 µM): 101% and 89% and 85.7%
viability, T/C (compound 0.0999 µM): 63.2% and 87.7% and 68.7%
viability, T/C (compound 0.316 µM): 57.2% and 55.4% and 52.3%

Source: PubChem BioAssay AID2060489 (Molecular Pharmacology Branch, DTP, NCI, 2025)
